This assay relates to ischemia/reperfusion induced kidney injury. The assay is described as follows: rat model of ischemia/reperfusion induced kidney injury. It counts as in vivo. Particulars: Sprague Dawley rats after ischemic renal injury (45 min bilateral renal pedicle occlusion), veliparib 25 mg/kg BID PO. An excerpt: Acute kidney injury (AKI) is a clinical condition characterized by a rapid decline in kidney function and is often associated with high morbidity and mortality. The precise etiology of ischemia/reperfusion (I/R)-induced AKI is yet not fully understood and is thought to involve multiple factors. The prevention of acute kidney injury and its progression represents a great challenge particularly in renal transplanted patients. Therefore, animal models of renal ischemia/reperfusion (I/R) are important to understand pathophysiology and potential treatment strategies for AKI. The present study evaluated the efficacy of a test compound, namely veliparib (shown below),
[drawing 8] in a rat model of ischemia/reperfusion induced kidney injury.
Species: Rattus norvegicus
3. Experimental Plan • i. All animals were numbered and kept in acclimatization for a period of 5-7 days, with 2 days acclimatization on metabolic cages before, initiation of the experiment. • ii. Animals were randomized into different treatment groups based on their body weight and assigned a permanent number. • iii. Body weight measurements were made once at randomization, also daily just prior to compound dosing and prior to termination. All body weights were recorded. • iv. Treatment with test compound(s) varied based on dose group (see table) that follows different dosing paradigms. The time of each dose administration was recorded. • 1. The dosing schedule for groups 1 and 2 was as follows: a 5 mL/kg BID dose with vehicle starting Day −1 through Day 2 with the final dose on Day 3 occurring 2 hours prior to takedown. • 2. The dosing schedule for group 3 with veliparib was 25 mg/kg BID starting on Day −1. […] After 45 min, the clips were removed, reperfusion was monitored (change in kidney color) for 1-2 min and the surgical sites were sutured. […] Postsurgical care and recovery: Animals were monitored until recovery from anesthesia and returned to their metabolic cage. […] For the 6 hour collection, urine volume was measured and recorded (to the nearest 1.0 mL) and samples were clarified by centrifugation (3000 rpm for 10 minutes). […]

Entries after “also recorded” stand apart in the source; their conditions may differ.

As to `C[C@]1(c2nc3c(C(N)=O)cccc3[nH]2)CCCN1` [veliparib], where the note is “FIG. 2A/2B”, the “induced increases in blood urea nitrogen (BUN)” value is reported as “attenuates” and the “induced increases in plasma creatinine levels” value is “attenuates”. Besides, the “fractional excretion of sodium (a measurement of tubular injury)” value (FIG. 3) is on record as “improves; also recorded: attenuates”.

The values above are taken from patent US10874641B2, “Methods of treating acute kidney injury” (Mitobridge, Inc., priority 2016, dated 2020).
